From patent US8604059B2, “Thioxanthene derivatives for the treatment of infectious diseases” (BKG Pharma APS, priority 2009, dated 2013)
≈ marks a conversion by molar mass, not a printed value. Where “and” joins values, the source holds several entries; their conditions need not be identical. Equal values may be shown once. Read-outs that look alike come from different tables or passages of the source.

Legend:
[1] = tested on: Multiresistant clinical isolates of S. aureus and S. epidermidis; test: Maximal reversal of resistance and synergistic effect (Table 4b); type: cell-based; conditions: for MIC / MIC alone: antibiotic alone, ten strains in each group; for MIC / MIC plus compound 1 0.60 ug/ml / MIC compound 2 0.98 ug/ml / MIC plus compound 3 0.30 ug/ml / MIC plus compound 4 0.75 ug/ml / MIC alone: median; for Fold enhanced, compound 1 0.60 ug/ml: enhancement of antibiotic by compound 1 at 0.60 ug/ml; for Fold enhanced, compound 2 0.98 ug/ml: enhancement of antibiotic by compound 2 at 0.98 ug/ml; for Fold enhanced, compound 3 0.30 ug/ml: enhancement of antibiotic by compound 3 at 0.30 ug/ml; for Fold enhanced, compound 4 0.75 ug/ml: enhancement of antibiotic by compound 4 at 0.75 ug/ml; for MIC plus compound 1 0.60 ug/ml: MIC of antibiotic in presence of compound 1 at 0.60 ug/ml; for MIC compound 2 0.98 ug/ml: MIC of antibiotic in presence of compound 2 at 0.98 ug/ml; for MIC plus compound 3 0.30 ug/ml: MIC of antibiotic in presence of compound 3 at 0.30 ug/ml; for MIC plus compound 4 0.75 ug/ml: MIC of antibiotic in presence of compound 4 at 0.75 ug/ml
Protocol: (§1) The maximal obtained reversal of resistance and synergistic effect was tested as previously described.
Strains: Multiresistant clinical isolates of S. aureus and S. epidermidis, Ten strains in each group.

[2] = tested on: Multiresistant clinical isolates E. coli; test: Maximal reversal of resistance and synergistic effect (Table 4c); type: cell-based; conditions: for MIC: Escherichia coli; for MIC / MIC alone: antibiotic alone, ten strains; for MIC / MIC plus compound 1 1.0 ug/ml / MIC plus compound 2 2.0 ug/ml / MIC plus compound 3 0.6 ug/ml / MIC alone: median; for Fold enhanced, compound 1 1.0 ug/ml: enhancement of antibiotic by compound 1 at 1.0 ug/ml; for Fold enhanced, compound 2 2.0 ug/ml: enhancement of antibiotic by compound 2 at 2.0 ug/ml; for Fold enhanced, compound 3 0.6 ug/ml: enhancement of antibiotic by compound 3 at 0.6 ug/ml; for MIC plus compound 1 1.0 ug/ml: MIC of antibiotic in presence of compound 1 at 1.0 ug/ml; for MIC plus compound 2 2.0 ug/ml: MIC of antibiotic in presence of compound 2 at 2.0 ug/ml; for MIC plus compound 3 0.6 ug/ml: MIC of antibiotic in presence of compound 3 at 0.6 ug/ml
Protocol: as §1
Strains: Multiresistant clinical isolates E. coli, Ten strains in each group.

E. coli = test: MIC, microdilution broth, multiresistant clinical isolates (Table 1A); type: cell-based; conditions: Escherichia coli; ten multiresistant clinical isolates; read-out: Median MIC E. coli
Protocol: (§2) Cell growth was tested using the Minimal Inhibitory Concentration (MIC) susceptibility tests by use of the microdilution broth method in accordance to the NCCLS Guidelines (NCCLS Guidelines, Methods for Dilution Antimicrobial Susceptibility Tests for Bacteria That Grow Aerobically; Approved Standard, Sixth Edition, Volume 23; Number 2). The minimum inhibitory concentration (MIC), is defined as the lowest concentration of drug which inhibits growth of the test organism, in the sense that no visible growth is detected (total inhibition of growth). In example 2, MIC of the compounds used on fungal microorgansims was determined from the IC90 measurements according to NCCLS Guidelines.
(§3) A log phase culture of bacteria was diluted with fresh pre-warmed Mueller-Hinton medium and adjusted to a defined OD at 600 nm in order to give a final concentration of 1×10^4-5 bacteria/ml medium. The bacterial culture was transferred to microtiter-plates and culture was added to each well. […] Trays were incubated at 37° C. by shaking in a robot analyzer, PowerWavex, software KC^4′ Kebo. Lab, Copenhagen, for 16 h and optical densities were measured at 600 nm during the incubation time in order to record growth curves. Wells containing bacterial culture without drug were used as controls to ensure correct inoculum size and bacterial growth during the incubation. Cultures were tested in order to detect contaminations. Each experiment was repeated in triplicate.
(§4) Ten strains in each test group.

E. faecalis = test: as above; type: cell-based; conditions: Enterococcus faecalis; ten multiresistant clinical isolates; read-out: Median MIC E. faecalis
Protocol: as §2, §3, §4

E. faecium = test: as above; type: cell-based; conditions: Enterococcus faecium; ten multiresistant clinical isolates; read-out: Median MIC E. faecium
Protocol: as §2, §3, §4

S. aureus = test: as above; type: cell-based; conditions: Staphylococcus aureus; ten multiresistant clinical isolates; read-out: Median MIC S. aureus
Protocol: as §2, §3, §4

S. epidermidis = test: as above; type: cell-based; conditions: Staphylococcus epidermidis; ten multiresistant clinical isolates; read-out: Median MIC S. epidermidis
Protocol: as §2, §3, §4

[3] = tested on: E. coli MDR clinical isolates; test: FIC index, synergy with antibiotics (Table 4a); type: cell-based; conditions: 8 MDR E. coli, mean, compound at ¼ of MIC
Protocol: (§5) The effect of the compounds was tested according to the methods described in WO2005/105145. In brief, cell growth was tested using the MIC susceptibility tests by use of the microdilution broth method in accordance to the NCCLS Guidelines (NCCLS Guidelines, Methods for Dilution Antimicrobial Susceptibility Tests for Bacteria That Grow Aerobically; Approved Standard, Sixth Edition, Volume 23; Number 2).
(§6) The Fractional Inhibitory Concentration (FIC) index were calculated for each compound as described in WO2005/105145. Synergy was defined for Fractional Inhibitory Concentration (FIC) indices less than 0.5
E. coli: 8 in vivo-selected multidrug resistant clinical isolates of E. coli. Resistant to tetracycline, beta-lactams, fluoroquinolones, chloramphenicol and aminoglycoside

[4] = tested on: S. aureus MRSA clinical isolates; test: FIC index, synergy with antibiotics (Table 4a); type: cell-based, Staphylococcus aureus; conditions: with Dicloxacillin; 8 MRSA; mean; compound at ¼ of MIC
Protocol: as §5, §6
Staphylococcus aureus: 8 (MRSA) in vivo-selected clinical isolates. Resistant to methicillin and beta-lactam antibiotics. Susceptible to teicoplanin chloramphenicol, fosfomycin, netilmicin and vancomycin.

[5] = tested on: E. faecalis MDR/VRE clinical isolates; test: FIC index, synergy with antibiotics (Table 4a); type: cell-based, Enterococcus faecalis; conditions: 8 MDR/VRE E. faecalis, mean, compound at ¼ of MIC
Protocol: as §5, §6
Enterococcus faecalis: 8 multidrug resistant in vivo-selected clinical isolates. […] Expressing change in the cell wall precursor target as a major resistance mechanism (VanA gene expression).

Candida albicans = test: Synergy with fluconazole, broth microdilution NCCLS M27-A (Table 10); type: cell-based; conditions: Candida albicans
Protocol: The isolates were subcultured for 24 h on Sabouraud glucose agar before susceptibility testing. Broth microdilution tests were performed according to NCCLS document M27-A (Ref: National Commitee for Clinical Laboratory Standards. (1997). Reference Method for Broth Dilution Antifungal Susceptibility Testing of Yeasts: Approved Standard M27-A. NCCLS, Wayne, Pa.) Microtitre plates were read spectrophotometrically at 530 nm, after mixing the wells by pipetting to resuspend yeast sediments. […] The Fractional Inhibitory Concentration (FIC) was calculated for the anti-infective agent alone and in combination with compound 3 and 4 (see table 4) as described above. Synergy was defined as a FIC index of <0.5.

[6] = tested on: Enterococcus faecalis ENT 28 (VRE); test: Mouse peritonitis model, neutropenic NMRI mice, enhancing effect with linezolid; type: in vivo
Protocol: A multiresistant clinical isolate of Enterococcus faecalis ENT 28 (VRE) from human urine was used.
Female NMRI mice (age, approximately 6 to 8 weeks; weight, 30±2 g) were used for the mouse […] peritonitis model (as described below).
In order to detect any synergistic effect, infected mice were treated with sub-therapeutic doses of each test compound alone or a mixture of the two compounds.
Bacterial suspensions were prepared from fresh overnight cultures (made from frozen stock cultures) on 5% blood agar plates as described above. The inoculum for the mouse peritonitis model was prepared immediately before use and was adjusted at 540 nm of giving a density of approximately 10^7 CFU/ml. The size of the inoculum was determined by viability counting on 5% blood agar.
Neutropenia was introduced by pretreating the mice with cyclophosphamide (6 mg daily for three days). […] Antibiotic therapy was initiated just after inoculation. Linezolid and compound 3 was administered subcutaneously in the neck region in a volume of 0.5 ml per dose. 3 mice were in each treatment group. Inoculated untreated control mice were included in all trials. (Method reference: Erlandsdottir et al; Antimicrob Agents Chemother. 2001 April; 45(4):1078-85)
The effects of the various treatment regimens were determined during 5 h of treatment by evaluation of bacterial counts in the peritoneal fluid. After the mice were killed, peritoneal washes were performed by injecting 2 ml of sterile saline intraperitoneally, followed by massage of the abdomen and then opening of the peritoneum to collect the fluid. Peritoneal fluids were immediately diluted 10-fold in saline, from which 20 μl was plated onto 5% blood agar plates in spots, with subsequent counting of colonies after incubation overnight at 35° C. The lowest detection levels for bacterial counts in blood and peritoneal fluid were 50 and 250 CFU/ml, respectively.

[7] = treatment 0 and 2 hours, sampling 5 hours, sub-therapeutic doses as in Table 9, individual mice

Compound	MIC [1]	Fold enhanced, compound 1 0.60 ug/ml [1]	Fold enhanced, compound 2 0.98 ug/ml [1]	Fold enhanced, compound 3 0.30 ug/ml [1]	Fold enhanced, compound 4 0.75 ug/ml [1]	Fold enhanced, compound 1 1.0 ug/ml [2]	Fold enhanced, compound 2 2.0 ug/ml [2]	Fold enhanced, compound 3 0.6 ug/ml [2]	MIC plus compound 1 0.60 ug/ml [1]	MIC compound 2 0.98 ug/ml [1]	MIC plus compound 3 0.30 ug/ml [1]	MIC plus compound 4 0.75 ug/ml [1]	MIC alone [1]	further results
CC1(C)S[C@@H]2[C@H](NC(=O)[C@H](N)c3ccccc3)C(=O)N2[C@H]1C(=O)O [Ampicillin]	16 µg/mL	4 (4)	4 (4)	8	4 (4)	8	4	16						MIC [2]: 32 µg/mL
CC1(C)S[C@@H]2[C@H](NC(=O)Cc3ccccc3)C(=O)N2[C@H]1C(=O)O [Benzylpenicillin]	64 µg/mL	8 (8)	8 (8)	16	8 (8)									
Clc1ccc2c(c1)/C(=C/CCN1CCNCC1)c1ccccc1S2 [Compound 1, N-dealkyl-transclopenthixol]														MIC (E. coli): 6 µg/mL (≈ 16.8 µM); MIC (E. faecalis): 0.6 µg/mL (≈ 1.68 µM); MIC (E. faecium): 0.6 µg/mL (≈ 1.68 µM); MIC (S. aureus): 3.6 µg/mL (≈ 10.1 µM); MIC (S. epidermidis): 2.4 µg/mL (≈ 6.72 µM); FIC index ([3]; with Ampicillin): 0.47; FIC index ([3]; with Ciprofloxacin): 0.47; FIC index ([3]; with Gentamycin): 0.47; FIC index ([3]; with Tetracycline): 0.47; FIC index [4]: 0.28; FIC index ([5]; with Ciprofloxacin): 0.28; FIC index ([5]; with Dicloxacillin): 0.28; Maximal reversal of resistance: concentration of compound ([2]; E. coli multiresistant isolates): 1.0 µg/mL
CC[C@H]1OC(=O)[C@H](C)[C@@H](O[C@H]2C[C@@](C)(OC)[C@@H](O)[C@H](C)O2)[C@H](C)[C@@H](O[C@@H]2O[C@H](C)C[C@H](N(C)C)[C@H]2O)[C@](C)(O)C[C@@H](C)C(=O)[C@H](C)[C@@H](O)[C@]1(C)O [Erythromycin]	16 µg/mL	4 (4)	4 (4)	8	4 (4)									
OC(Cn1cncn1)(Cn1cncn1)c1ccc(F)cc1F [Fluconazole]														MIC (Candida albicans; Table 10A, fluconazole in presence of compound 3 at 0.25 μg/ml, read-out: MIC FL + comp 3 (0.25 μg/m1)): 4 µg/mL; MIC (Candida albicans; Table 10B (compound 4), fluconazole in presence of compound at 0.50 μg/ml, read-out: MIC FL + comp 3 (0.50 μg/ml)): 8 µg/mL; MIC (Candida albicans; read-out: MIC Fluconazole (FL)): 128 µg/mL
CC(=O)NC[C@H]1CN(c2ccc(N3CCOCC3)c(F)c2)C(=O)O1 [Linezolid]														Effect on the infection / bacteria in mouse peritoneum ([6]; sub-therapeutic dose alone): no effect on the infection; score at sampling ([6]; treatment 0 and 2 hours, sampling 5 hours, Linezolid 1 mg/ml 0.5 ml, Compound 3 0.1 mg/ml 0.5, combination Linezolid 2 mg/ml (0.25 ml) and compound 3 0.2 mg/ml (0.25 ml), individual mice): 2 and 3 (2×); Cfu/ml peritoneum [6, 7]: 2.08E+09 Cfu/ml and 2.20E+09 Cfu/ml and 2.40E+09 Cfu/ml; log (cfu/ml) peritoneum [6, 7]: 9.32 log (cfu/ml) and 9.34 log (cfu/ml) and 9.38 log (cfu/ml)
CCN1CCN(C(=O)N[C@@H](C(=O)N[C@@H]2C(=O)N3[C@@H]2SC(C)(C)[C@@H]3C(=O)O)c2ccccc2)C(=O)C1=O [Piperacillin]						4 (4)	4 (4)	8						MIC [2]: 16 µg/mL
CN(C)[C@@H]1C(=O)C(C(N)=O)=C(O)[C@@]2(O)C(=O)C3=C(O)c4c(O)cccc4[C@@](C)(O)[C@H]3C[C@@H]12 [Tetracyclin]		2	2	4	2	4 (4)	4 (4)	8	4 µg/mL	8 µg/mL	2 µg/mL	8 µg/mL	16 µg/mL	MIC plus compound 1 1.0 ug/ml [2]: 4 (4) μg/ml; MIC plus compound 2 2.0 ug/ml [2]: 4 (4) μg/ml; MIC plus compound 3 0.6 ug/ml [2]: 2 µg/mL; MIC alone [2]: 16 µg/mL
Dicloxacillin & Methicillin		16	16	32	16				4 µg/mL	4 µg/mL	2 µg/mL	4 µg/mL	64 µg/mL	
Gentamicin		2	2	4	2	2	2	4	4 µg/mL	4 µg/mL	2 µg/mL	4 µg/mL	8 µg/mL	MIC plus compound 1 1.0 ug/ml [2]: 4 µg/mL; MIC plus compound 2 2.0 ug/ml [2]: 4 µg/mL; MIC plus compound 3 0.6 ug/ml [2]: 2 µg/mL; MIC alone [2]: 8 µg/mL
